Reference: PMC10252614 (International Journal of Molecular Sciences, 2023)

Tests used:
[1] = PAMPA prediction of BBB permeability; assay type: in vitro ADME; conditions: for CNS (+/−): PAMPA class; for Papp: read-out: Pe ± SEM
Method: The assay validation was performed using standard compounds whose CNS status is experimentally known from in vivo conditions.
PAMPA (the parallel artificial membrane-permeability assay) is a high-throughput screening tool applicable for prediction of the passive transport of potential drugs across the blood–brain barrier (BBB). In this study, it was used as a non-cell-based in vitro assay carried out in a coated 96-well membrane filter. The filter membrane of the donor plate was coated with PBL (Polar Brain Lipid, Avanti, USA) in dodecane (4 µL of 20 mg/mL PBL in dodecane) and the acceptor well was filled with 300 µL of PBS (pH 7.4; VA). The tested compounds were dissolved first in DMSO and subsequently diluted with PBS (pH 7.4) to final concentrations of 50–100 μM in the donor wells. […] About 300 µL of the donor solution was added to the donor wells (VD) and the donor filter plate was carefully put on the acceptor plate so that the coated membrane was “in touch” with both the donor solution and acceptor buffer. In principle, the test compound diffused from the donor well through the lipid membrane (Area = 0.28 cm^2) to the acceptor well. The concentration of the drug in both the donor and acceptor wells were assessed after 3, 4, 5, and 6 h of incubation in quadruplicate using the UV plate reader Spark (Tecan Group Ltd., Männedorf, Switzerland) at the maximum absorption wavelength of each compound. In addition, the solution of the theoretical compound concentration, simulating the equilibrium state established if the membrane were ideally permeable, was prepared and assessed as well.

[2] = biological target: T1, hMAO-A (Homo sapiens, UniProt P21397); test: in vitro inhibition of hMAO-A, kynuramine fluorescence assay; assay type: biochemical
T1 construct: purchased Merck (Prague, Czech Republic)
T1 sequence (P21397 1-527): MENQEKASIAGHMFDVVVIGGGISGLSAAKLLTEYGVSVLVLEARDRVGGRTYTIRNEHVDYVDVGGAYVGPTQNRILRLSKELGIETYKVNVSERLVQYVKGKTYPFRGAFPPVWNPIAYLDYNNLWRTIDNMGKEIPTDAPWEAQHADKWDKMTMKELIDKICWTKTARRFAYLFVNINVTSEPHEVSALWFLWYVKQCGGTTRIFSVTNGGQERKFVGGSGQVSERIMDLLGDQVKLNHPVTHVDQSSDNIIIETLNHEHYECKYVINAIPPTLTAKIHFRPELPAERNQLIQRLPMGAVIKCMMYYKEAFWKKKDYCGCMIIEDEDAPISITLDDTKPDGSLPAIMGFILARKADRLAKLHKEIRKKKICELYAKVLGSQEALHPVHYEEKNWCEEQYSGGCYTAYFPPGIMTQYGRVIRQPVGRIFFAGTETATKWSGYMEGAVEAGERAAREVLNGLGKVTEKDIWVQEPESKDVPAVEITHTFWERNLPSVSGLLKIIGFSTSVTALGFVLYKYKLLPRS
Method: (§1) The hMAO-A and hMAO-B enzymes were purchased from Merck (Prague, Czech Republic). […] The mixture was pre-incubated at 37 °C for 15 min and subsequently substrate kynuramine was added to the final concentration of 100 µM. The final volume of reaction mixture was 0.1 mL. The whole reaction mixture was incubated at 37 °C for 30 min. The reaction was stopped by the addition of 20 µL 4M NaOH.

[3] = biological target: T2, hMAO-B (Homo sapiens, UniProt P27338); test: in vitro inhibition of hMAO-B, kynuramine fluorescence assay; assay type: biochemical
T2 construct: purchased Merck (Prague, Czech Republic)
T2 sequence (P27338 1-520): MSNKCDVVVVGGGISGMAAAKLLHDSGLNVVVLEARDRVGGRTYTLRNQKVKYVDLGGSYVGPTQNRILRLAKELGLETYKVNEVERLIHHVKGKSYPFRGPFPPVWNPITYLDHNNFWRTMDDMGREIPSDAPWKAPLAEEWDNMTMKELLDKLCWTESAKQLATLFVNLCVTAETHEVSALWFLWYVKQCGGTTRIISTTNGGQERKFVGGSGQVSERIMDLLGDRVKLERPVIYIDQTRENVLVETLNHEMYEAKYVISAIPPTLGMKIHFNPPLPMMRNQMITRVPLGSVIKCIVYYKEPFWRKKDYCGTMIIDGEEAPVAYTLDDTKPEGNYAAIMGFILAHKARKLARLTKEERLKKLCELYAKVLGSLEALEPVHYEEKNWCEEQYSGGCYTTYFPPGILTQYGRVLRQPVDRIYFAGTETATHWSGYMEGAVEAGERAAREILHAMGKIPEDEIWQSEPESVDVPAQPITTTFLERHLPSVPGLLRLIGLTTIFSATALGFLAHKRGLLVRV
Method: as §1

[4] = in vitro; conditions: human, undifferentiated SH-SY5Y cells
[5] = biological target: T3, human BChE (hBChE) (Homo sapiens, UniProt P06276); test: hBChE inhibition, modified Ellman's method; assay type: biochemical; conditions: 10^-6 M
T3 construct: made in house
Method: N-Methylpropargylamine-quinazolines were tested for their inhibitory potency against human AChE (hAChE) and human BChE (hBChE) enzymes using the modified spectrophotometric method of Ellman et al..
The human recombinant BChE and AChE were prepared at the Department of Toxicology and Military Pharmacy (Faculty of Military Health Sciences, Hradec Kralove, Czech Republic). 5,5′-dithiobis(2-nitrobenzoic acid) (Ellman’s reagent, DTNB), phosphate buffer (PB, pH 7.4), acetylthiocholine (ATC) and butyrylthiocholine (BTC), were purchased from Sigma-Aldrich, Prague, Czech Republic. For measuring purposes, polystyrene Nunc 96-well microplates with a flat-bottom shape (ThermoFisher Scientific, Waltham, MA, USA) were utilized. All the assays were carried out in 0.1 M KH2PO4/K2HPO4 buffer, pH 7.4. Enzyme solutions were prepared at 2.0 units/mL in 2 mL aliquots. The assay medium consisted of a 0.1 M phosphate buffer (pH 7.4), 0.01 M DTNB, the enzyme, and 0.01 M substrate (ATC/BTC iodide solution). Concentration 1 µM was tested and the % of inhibition was calculated. Tested compounds were pre-incubated for 5 min. The reaction was started by immediate addition of 20 μL of the substrate. […] Each concentration was assayed in triplicate. Software GraphPad Prism 5 (San Diego, CA, USA) was used for the statistical data evaluation.

T3 sequence (P06276 29-602): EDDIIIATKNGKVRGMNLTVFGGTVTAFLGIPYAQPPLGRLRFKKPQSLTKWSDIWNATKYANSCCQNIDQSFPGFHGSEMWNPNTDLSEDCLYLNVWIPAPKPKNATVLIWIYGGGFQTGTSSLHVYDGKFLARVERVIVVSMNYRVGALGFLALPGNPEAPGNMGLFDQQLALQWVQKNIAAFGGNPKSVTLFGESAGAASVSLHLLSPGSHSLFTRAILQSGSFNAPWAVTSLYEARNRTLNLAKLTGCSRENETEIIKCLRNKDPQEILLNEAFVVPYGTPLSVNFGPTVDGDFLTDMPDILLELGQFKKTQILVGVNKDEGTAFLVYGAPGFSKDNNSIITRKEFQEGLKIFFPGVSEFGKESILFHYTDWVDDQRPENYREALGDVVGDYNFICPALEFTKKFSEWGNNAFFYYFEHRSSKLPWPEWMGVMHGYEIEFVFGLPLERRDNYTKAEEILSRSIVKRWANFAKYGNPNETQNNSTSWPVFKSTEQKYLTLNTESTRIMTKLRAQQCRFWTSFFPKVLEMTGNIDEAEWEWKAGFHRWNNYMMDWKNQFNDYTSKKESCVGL

Structure (SMILES) | BBB penetration by PAMPA (in words) [1] | CNS (+/−) [1] | Papp ([1]; PAMPA, PBS pH 7.4) [×10⁻⁶ cm/s] | IC50 [2] [µM] | selectivity profile hMAO-A vs hMAO-B (in words) [3] | IC50 at 24 h [4] [µM] | inhibition at 1 µM [5] [%] | IC50 [3] [µM] | SI for MAO-B ([3]; IC50(MAO-A)/IC50(MAO-B)) | Pe ± SEM ([1]; PAMPA, PBS pH 7.4) [×10⁻⁶ cm/s]
C#CCN(C)c1nc(NCCCC)c2ccccc2n1 [I-6e, N4-butyl-N2-methyl-N2-(prop-2-yn-1-yl)quinazoline-2,4-diamine] | high probability of crossing BBB via passive diffusion | CNS (+) (CNS (+) (high BBB permeation predicted): Pe (×10^−6 cm s^−1) > 4.0) | 7.37 ± 1.22 | 2.6 ± 0.23 | hMAO-A selective inhibitors | 67.95 ± 0.22 | 4 | – | – | –
C#CCN(C)c1nc(NC2CCCCC2)c2ccccc2n1 [I-6h, N4-cyclohexyl-N2-methyl-N2-(prop-2-yn-1-yl)quinazoline-2,4-diamine] | high probability of crossing BBB via passive diffusion | CNS (+) (CNS (+) (high BBB permeation predicted): Pe (×10^−6 cm s^−1) > 4.0) | 5.61 ± 1.01 | 0.9 ± 0.17 | inhibitor of both hMAO isoforms, with a preference for hMAO-B inhibition | 53.2 ± 3.03 | 0 | 8.69 ± 0.12 | 0.10 | –
C#CCN(C)c1nc(NC2CCCCC2)c2ccc(Cl)cc2n1 [II-6h, 7-chloro-N4-cyclohexyl-N2-methyl-N2-(prop-2-yn-1-yl)quinazoline-2,4-diamine] | high probability of crossing BBB via passive diffusion | CNS (+) (CNS (+) (high BBB permeation predicted): Pe (×10^−6 cm s^−1) > 4.0) | 9.39 ± 1.17 | – | hMAO-B selective inhibitors | 35 ± 1.53 | 3 | 0.33 ± 0.02 | – | –
C#CCN(C)c1nc(N)c2cc(OC)ccc2n1 [III-6a, 6-methoxy-N2-methyl-N2-(prop-2-yn-1-yl)quinazoline-2,4-diamine] | did not penetrate the artificial barrier | CNS (−) (CNS (−) (low BBB permeation predicted): Pe (×10^−6 cm s^−1) < 2.0) | – | 0.62 ± 0.04 | hMAO-A selective inhibitors | 38.6 ± 0.82 | 1 | – | – | 0
